Like-named read-outs stand apart in the source and are kept apart here.
Experiments:
[1] = target: T1, Isoprenylcysteine carboxyl methyltransferase (Icmt) (Homo sapiens, UniProt O60725); assay: Icmt inhibition, scintillation proximity assay with BFC and [3H]SAM; format: biochemical; conditions: for IC50: Table 3, mean of two or more determinations (SD), read-out: IC50 Icmt
T1 construct: made in house; host or cells: Sf9 (Spodoptera frugiperda) insect cells; membrane preparation provided by Prof PJ Casey (Duke University / Duke-NUS)
T1 sequence (O60725 whole entry, species assumed): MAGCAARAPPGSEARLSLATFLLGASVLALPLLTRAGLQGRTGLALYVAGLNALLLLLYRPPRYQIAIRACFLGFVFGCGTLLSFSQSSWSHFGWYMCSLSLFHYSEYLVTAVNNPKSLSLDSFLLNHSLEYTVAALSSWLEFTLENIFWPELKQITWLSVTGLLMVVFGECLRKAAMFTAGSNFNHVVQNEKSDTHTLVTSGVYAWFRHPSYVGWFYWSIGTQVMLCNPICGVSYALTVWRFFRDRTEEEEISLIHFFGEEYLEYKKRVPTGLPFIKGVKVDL
Method: Isoprenylcysteine carboxyl methyltransferase (Icmt) was provided by Prof PJ Casey of Duke University, NC. S-Adenosylmethionine (SAM), magnesium chloride Hexahydrate (MgCl2), tartrazine, 4-(2-hydroxyethyl)-1-piperazineethanesulfonic acid (HEPES), dimethyl sulfoxide (DMSO) and dithiotreitol (DTT) were purchased from Sigma (Mo, USA). [^3H] S-Adenosylmethionine, [^3H] Biotin and Streptavidin PVT SPA Beads were purchased from PerkinElmer (Waltham, Mass.). Assays were performed in black small volume 384 well microtitre plates from PerkinElmer.
Stocks of Icmt membrane protein (30 μg/μL) stored at −80° C. were thawed at 37° C. and placed on ice. The Icmt membrane protein was diluted in assay buffer (70 mM HEPES, 100 mM NaCl, 5 mM Mg Cl2 and 3 mM DTT, pH 7.5) to a 0.03 μg/μL working concentration and added to the wells of a microtitre plate (5 μl/well). To each wells 20 μl of the reaction buffer was added. The reaction was initiated with the addition of 5 μL of substrate solution containing BFC (6 μM), SAM (3 μM) and 30 μCi/mL [^3H] SAM (all of these reagents were stored at −20° C., SAM reagents thawed on ice, BFC thawed at RT). The plate was incubated at 37° C. for 30 minutes. The reaction was stopped with the addition of 15 μL of stop solution containing SAM (150 μM) and Streptavidin SPA beads (20 mg/mL). Following overnight incubation at ambient temperature radioactivity was counted on a Microbeta Trilux™ (Perkin Elmer, Turku, Finland).
Sf9 (Spodoptera frugiperda ovarian) membranes containing recombinant Icmt were provided by Prof PJ Casey (Duke University, NC and Duke-NUS Graduate Medical School). S-Adenosylmethionine (SAM), magnesium chloride hexahydrate, tartrazine, 4-(2-hydroxyethyl)-1-piperazineethanesulfonic acid (HEPES) and dithiotreitol (DTT) were purchased from Sigma (Mo, USA). [^3H] S-Adenosylmethionine, [^3H] biotin and streptavidin PVT SPA Beads were purchased from PerkinElmer (Waltham, Mass.). Biotinylated farnesylcysteine was synthesized as described in an earlier report. Assays were performed in black 384-well microtitre plates from PerkinElmer.
A vial of Icmt membrane protein (30 μg/μL) stored at −80° C. was thawed at 37° C. and placed on ice. The protein was diluted in assay buffer (70 mM HEPES, 100 mM NaCl, 5 mM MgCl2, 3 mM DTT, pH 7.5) to 0.03 μg/μL and aliquots were added to each well (5 μL/well), followed by 20 μL of the assay buffer. The reaction was initiated by adding 5 μL of a solution containing biotinylated BFC (6 μM), SAM (3 μM) and 30 μCi/mL [^3H] SAM. These reagents were stored at −20° C. and thawed on ice (SAM, [^3H] SAM) or at room temperature (BFC). The plate was incubated at 37° C. for 30 minutes after which the reaction was quenched by adding 15 μL of a solution comprising SAM (150 μM) and streptavidin SPA beads (20 mg/mL). After overnight incubation at ambient temperature, radioactivity was counted (Microbeta Trilux™, Perkin Elmer, Turku, Finland). The degree of inhibition was assessed from the radioactivity obtained in presence of test compound compared to that obtained from the control sample […]. Two independent determinations were made for each test compound.

[2] = test system: MDA-MB-231 human breast cells; assay: Antiproliferative activity / cell viability (MTS, 72 h)
Method: (§1) The relative number of the live cells was determined using the CellTiter® 96 AQueous One Solution Cell Proliferation Assay (Promega). Determinations were made in duplicates or triplicates.
Human breast cancer MDA-MB231, liver cancer HepG2 and lung fibroblast cells were purchased from ATCC (Rockville, Md.). MDA-MB231 cells and IMR-90 cells were grown in DMEM (Sigma Aldrich, Singapore) and EMEM (Sigma Aldrich, Singapore) respectively at 37° C., 5% CO2. DMEM was supplemented with 10% fetal bovine serum (Invitrogen, heat treated at 65 deg C., 30 min), 50 units/L penicillin-G and 50 μg/mL streptomycin. EMEM was supplemented with 10% fetal bovine serum (heat treated as above), 100 mg/L penicillin-G and 100 μg/mL streptomycin.
Cell viability was assessed using CellTitre 96® Aqueous One Solution (Promega, Madison, Wis.) containing the tetrazolium salt 3-(4,5-dimethylthiazol-2-yl)-5-(3-carboxymethoxyphenyl)-2-(4-sulfophenyl)-2H-tetrazolium (MTS). […] Final concentration of DMSO per well was maintained at 0.5% v/v. […] Cell viability was determined from the expression:
The plot was constrained to ≧0 and ≦100%. At least 3 independent determinations of IC50 were made using two different stock solutions of test compound.

[3] = test system: PC3 Prostrate cancer cells; assay: as above; format: cell-based, human
Method: as §1

[4] = read-out: IC50MDA-MB-231, Table 3, 72 h, mean (SD)
[5] = Table 3, 72 h, mean (SD), read-out: IC50 PC3
[6] = Homo sapiens, MDA-MB-231, 72 h, read-out: IC50MDA-MB-231 (μM)
[7] = Homo sapiens, MDA-MB-231, read-out: IC50 (μM) MDA-MB231
[8] = Homo sapiens, PC-3M, Table 3, 72 h, mean (SD), read-out: IC50 PC3
[9] = Homo sapiens, Table 5, read-out: IC50 (μM) PC 3

Row | SMILES | IC50 [1] | IC50 [2, 6] | IC50 [2, 7] | IC50 [3, 8] | IC50 [3, 9] | further results
1 | CCCCCCCCn1cc(CN(CC)CC)c2cc(-c3ccccc3F)ccc21 [Compound 8-2] | 2.56 µM |  |  |  |  | 
2 | CCCCCCCCn1c2c(c3cc(-c4ccnc(F)c4)ccc31)CNCC2 [Compound 315, 8-(2′-fluoropyridin-4-yl)-5-n-octyl-1,2,3,4-tetrahydro-1H-pyrido[4,3-b]indole] |  |  |  |  |  | IC50 [2, 4]: 4.59 µM; IC50 [3, 5]: 7.69 µM
3 | CCCCCCCCn1cc(CN(CC)CC)c2cc(-c3cccc(F)c3)ccc21 [Compound 8-3] | 1.61 µM |  |  |  |  | 
4 | CCCCCCCCn1c2c(c3cc(F)ccc31)CN(Cc1ccc(O)cc1)CC2 [Compound 205, 8-fluoro-2-(4′-hydroxybenzyl)-5-n-octyl-1,2,3,4-tetrahydropyrido[4,3-b]indole] |  | 10.5 µM | 10.5 ± 0.08 µM | 10.5 µM | 10.5 ± 0.28 µM | 
5 | CCCCCCCCn1c2c(c3cc(-c4cccc(C)c4)ccc31)CN(Cc1ccc(O)cc1)CC2 [Compound 240, 2-(4′-hydroxybenzyl)-8-m-tolyl-5-n-octyl-1,2,3,4-tetrahydropyrido[4,3-b]indoles] |  |  |  |  |  | IC50 [2, 4]: 14.8 µM; IC50 [3, 5]: 10.2 µM
6 | CCCCCCCCn1c2c(c3cc(-c4cnc(N)nc4)ccc31)CN(C(=O)OCC)CC2 [cpd 480] |  |  | 17 µM |  | 21.3 µM | 
7 | CCCCCCCCn1c2c(c3cc(-c4cnc(N)nc4)ccc31)CNCC2 [Compound 309, 8-(2′-amino-pyrimidin-5-yl)-5-n-octyl-1,2,3,4-tetrahydropyrido[4,3-b]indole] |  | 2.72 µM |  | 4.44 µM |  | 
8 | CCCCCCCCn1cc(CC(N)=O)c2cc(-c3cnc(N)nc3)ccc21 [cpd 512] |  |  | > 50 µM |  | > 50 µM | 
9 | CCCCCCCCn1cc(C(=O)C(N)=O)c2cc(-c3cccc(C)c3)ccc21 [cpd 273] |  |  | > 50 µM |  | 16.7 ± 1.68 µM | 
10 | CCCCCCCCn1c2c(c3cc(-c4cnc(N)nc4)ccc31)CN(S(C)(=O)=O)CC2 [cpd 488] |  |  | 27.4 µM |  |  | 
11 | CCCCCCCCn1c2c(c3cc(-c4cccc(C)c4)ccc31)CN(C(C)C)CC2 [Compound 260, 2-isopropyl-8-m-tolyl-5-n-octyl-1,2,3,4-tetrahydropyrido[4,3-b]indoles] | 8.3 µM | 7.38 µM | 7.38 ± 0.48 µM | 9.69 µM | 9.69 ± 1.84 µM | 
12 | CCCCCCCCn1c2c(c3cc(-c4cnc(N)nc4)ccc31)CN(C(C)C)CC2 [cpd 474] |  |  | 9.17 ± 0.54 µM |  | 9.32 ± 0.65 µM | 
13 | CCCCCCCCn1c2c(c3cc(-c4cnc(N)nc4)ccc31)CN(CC)CC2 [cpd 490] |  |  | 5.85 µM |  |  | 
14 | CCCCCCCCn1c2c(c3cc(-c4cccc(C)c4)ccc31)CN(Cc1ccccc1)CC2 [cpd 214] |  |  | 8.6 ± 1.68 µM |  | 10.9 ± 2.31 µM | 
15 | CCCCCCCCn1c2c(c3cc(F)ccc31)CN(C)CC2 [Compound 199, 8-fluoro-2-methyl-5-n-octyl-1,2,3,4-tetrahydropyrido[4,3-b]indole] |  | 19.2 µM |  | 15.5 µM |  | 
16 | CCCCCCCCn1c2c(c3cc(-c4ccc(S(C)(=O)=O)cc4)ccc31)CN(C(N)=O)CC2 [cpd 324] |  |  |  |  | 8.88 ± 0.62 µM | 
17 | CCCCCCCCn1cc(CN(CC)CC)c2cc(-c3cccc(O)c3)ccc21 [Compound 8-21, 3-(3-Diethylaminomethyl-1-octyl-1H-indol-5-yl)-phenol] | 5.43 µM | 14.8 µM |  | 17.4 µM |  | 

Row | SMILES | IC50 [1] | IC50 [2, 6] | IC50 [2, 7] | IC50 [3, 8] | IC50 [3, 9] | further results
18 | CCCCCCCCn1c2c(c3cc(-c4cnc(N)nc4)ccc31)CN(C(N)=O)CC2 [cpd 319] |  |  |  |  | 9.43 ± 3.85 µM | 
19 | CCCCCCCCn1c2c(c3cc(-c4ccc(S(C)(=O)=O)cc4)ccc31)CNCC2 [Compound 314, 8-(4′-(methylsulfonyl)phenyl)-5-n-octyl-1,2,3,4-tetrahydropyrido[4,3-b]indole] |  | 2.1 µM |  | 2.92 µM |  | 
20 | CCCCCCCCn1cc(CN(CC)CC)c2cc(-c3cccc(OC(F)(F)F)c3)ccc21 [Compound 8-6] |  |  |  |  |  | IC50 [2, 4]: 7.17 µM; IC50 [3, 5]: 11.2 µM
21 | CCCCCCCCn1c2c(c3cc(-c4cccc(C)c4)ccc31)CN(C(=O)OCC)CC2 [cpd 481] |  |  | 25.9 µM |  | 30.1 µM | 
22 | CCCCCCCCn1c2c(c3cc(-c4cccc(C)c4)ccc31)CN(C)CC2 [Compound 235, 2-methyl-8-m-tolyl-5-n-octyl-1,2,3,4-tetrahydropyrido[4,3-b]indoles] | 10.3 µM | 9.18 µM |  | 7.58 µM |  | times less potent as an Icmt inhibitor than 8-1 ([1]; ratio of IC50 Icmt): ~5
23 | CCCCCCCCn1c2c(c3cc(-c4ccnc(F)c4)ccc31)CN(C(N)=O)CC2 [cpd 323] |  |  |  |  | 10.2 ± 3.63 µM | 
24 | CCCCCCCCn1cc(CN(CC)CC)c2cc(-c3ccccc3C(F)(F)F)ccc21 [Compound 8-4] | 1.28 µM | 6.69 µM |  | 9.66 µM |  | 
25 | CCCCCCCCn1c2c(c3cc(-c4cccc(C)c4)ccc31)CN(C(N)=O)CC2 [cpd 321] |  |  |  |  | 10.5 ± 3.08 µM | 
26 | CCCCCCCCn1c2c(c3cc(-c4cnc(N)nc4)ccc31)CN(CCO)CC2 [cpd 510] |  |  | 3.42 ± 0.72 µM |  | 3.97 ± 0.42 µM | 
27 | CCCCCCCCn1cc(CN(CC)CC)c2cc(-c3cnccc3F)ccc21 [Compound 8-8, Diethyl-[5(4-Fluoro-pyrdin-3yl)-1-octyl-1H-indol-3ylmethyl]-amine] | 0.96 µM |  |  |  |  | IC50 [2, 4]: 5.14 µM; IC50 [3, 5]: 5.88 µM
28 | CCCCCCCCn1cc(CN(CC)CC)c2cc(-c3ccc(C#N)cc3)ccc21 [Compound 8-20, 4-(3-Diethylaminomethyl-1-octyl-1H-indol-5-yl)-benzonitrile] | 2.45 µM | 7.72 µM |  | 6.19 µM |  | 
29 | CCCCCCCCn1c2c(c3cc(-c4ccc(S(C)(=O)=O)cc4)ccc31)CN(C)CC2 [Compound 306, 2-methyl-8-(4′-(methylsulfonyl)phenyl)-5-n-octyl-1,2,3,4-tetrahydropyrido[4,3-b]indole] |  | 4.6 µM |  | 5.38 µM |  | 
30 | CCCCCCCCn1cc(CC(N)=O)c2cc(-c3ccnc(F)c3)ccc21 [cpd 513] |  |  | 26.1 ± 0.41 µM |  | 25.6 ± 3.48 µM | 
31 | CC(C)=CCn1c2c(c3cc(-c4cccc(C)c4)ccc31)CN(Cc1ccc(O)cc1)CC2 [Compound 300, 2-(4′-hydroxybenzyl)-5-isoprenyl-8-m-tolyl-1,2,3,4-tetrahydropyrido[4,3-b]indoles] |  | 9.38 µM | 9.38 ± 0.92 µM | 13.3 µM | 13.3 ± 5.7 µM | 
32 | CCCCCCCCn1cc(CN(CC)CC)c2cc(-c3cnc(C#N)nc3)ccc21 [Compound 8-19, 5-(3-Diethylaminomethyl-1-octyl-1H-indol-5-yl)-pyrimidine-2-carbonitrile] | 2.26 µM | 3.95 µM |  | 5.92 µM |  | 
33 | CCCCCCCCn1cc(CN(CC)CC)c2cc(-c3cccc(C(F)(F)F)c3)ccc21 [Compound 8-5] | 2.61 µM |  |  |  |  | 

— patent US9422238B2, “ICMT inhibitors” (National University of Singapore, priority 2012, dated 2016)
